Source: patent US9540647B2, “Methods and compositions for the treatment of cancer” (University of South Alabama, priority 2010, dated 2017)
“Also recorded” adds a separate entry of the source.

Key:
OPN = assay: Secreted OPN in conditioned media of MDA-MB-435 cells (Western blot); assay type: cell-based, human; details: 10 μM and 20 μM cyclopamine vs DMSO
Experimental: Stable vector only and non-targeting (scrambled control) transfectants were also generated. Stable transfectants were selected on medium supplemented with 500 μg/ml Geneticin (Invitrogen). The four GLI1-knocked down clones chosen were based on the extent of GLI1 knockdown and were termed KO1, KO2, KO3, and KO4. The expression of OPN was restored in the KO1 cells by transfecting with pcDNA3.1-OPN. A corresponding vector-only transfectant was also generated. Transfectants were selected on medium containing Geneticin (500 μg/ml) and hygromycin (750 μg/ml). Serum-free conditioned medium harvested from approximately 3.0×10^6 cells after 24 hr was assayed for OPN by immunoblotting.
Western Blotting Analysis—Whole cell lysates were collected in Nonidet P-40 buffer (150 mM NaCl, 50 mM Tris, 1% Nonidet P-40). Isolation of cytosolic and nuclear fractions was done as previously reported (15). Total protein (30 μg) was resolved by SDS-PAGE gel and transferred to polyvinylidene difluoride membranes. […] Secreted OPN was assessed by loading an equal quantity of protein from the serum-free conditioned medium. […]

c-jun = c-jun and c-fos protein expression and c-jun phosphorylation in A2780-CP70 cells (Western blot); assay type: cell-based, human; details: cyclopamine
Experimental: c-jun protein expression was assessed in cisplatin-treated A2780-CP70 cells using Western blot analysis.
Protein expression of c-fos and phosphorylation of c-jun in cyclopamine-treated A2780-CP70 cells was assessed using Western blot analysis. Protein levels for c-jun, c-fos, phosphorylated c-jun (Ser 63), phosphorylated c-jun (Ser 73), and phosphorylated c-jun (Thr 91, Thr 93) were tested in cytosolic, nuclear, and whole cell fractions at 0 hr, 6 hr, 24 hr, 48 hr, and 72 hr. Internal controls for cytosolic and nuclear fractions included α-tubulin and histone deacetylase 3.
Phosphorylation of c-jun in A2780-CP70 cells transfected with anti-GLI1 shRNA construct was assessed using Western blot analysis. Protein levels for c-jun, phosphorylated c-jun (Ser 63), phosphorylated c-jun (Ser 73), and phosphorylated c-jun (Thr 91, Thr 93) were examined at 0 hr, 6 hr, 24 hr, 48 hr, and 72 hr.

pancreatic cancer = details: blockade of Hedgehog signaling, inhibiting EMT; cited from earlier work
c-jun and c-fos mRNA = c-jun and c-fos mRNA expression in A2780-CP70 cells (semi-quantitative PCR); assay type: cell-based, human; details: 70 μM cyclopamine
[1] = system: MC3T3-E1 pre-osteoblast cells; assay: Osteoblast differentiation and mineralization (ALP, Alizarin Red S, BSP, osteocalcin); assay type: cell-based, murine
Experimental: The procedure for differentiation of osteoblasts was standardized. MC3T3-E1 cells were cultured in the presence of ascorbic acid and β-glycerophosphate. Mineralization was examined by Alizarin RedS staining (Ueno, A., et al. (2001). Matrix Biol 20, 347-355; Lee, Y. K., et al. (2004). J Biomed Mater Res A 69, 188-195; Duarte, W. R., et al. (2003). S100A4: a novel negative regulator of mineralization and osteoblast differentiation. J Bone Miner Res 18, 493-501). Referring to FIG. 13 and FIG. 14, differentiation was evident by intense red staining in presence of differentiation medium and in differentiation medium containing SHH compared to the control, growth medium. This was also evident in the intensity of absorbance and in the numbers of mineralized nodules formed (counted under the microscope) (FIG. 15).
Induction of osteoblastic and osteoclastic differentiation—In order to test the effect of conditioned medium from the tumor cells on osteoblast differentiation, a double-strength differentiation medium (DM) was formulated for MC3T3 E1 Sc-14 cells. It comprised αMEM, 20% FBS, 50 μg/ml ascorbic acid and 20 mM β-glycerophosphate. Conditioned media and the double-strength DM were mixed in a 1:1 ratio. 1×DM was used as control. Similarly a double-strength differentiation medium was formulated for RAW 264.7 cell lines. It consisted of 20% FBS, 50 ng/ml of RANKL and 20 ng/ml of M-CSF added to the growth medium. Conditioned media from the tumor cells was mixed 1:1 with the double-strength DM. 1×DM was used as control. Osteoblast differentiation was assessed by alkaline phosphatase (ALP) activity assay in the perspective of total phosphatase. The functional assessment of osteoblast mineralization was quantified by staining with Alizarin Red S and scoring the number of mineralized nodules.
Quantitative RT-PCR (qRT-PCR)—cDNA was generated using High Capacity Reverse Transcriptase Kit (Applied Biosystems, Foster City, Calif.). Real time PCR was performed using a BioRad iQ5 Real-Time Detection system (Bio-Rad, Hercules, Calif.). All reactions were done in triplicate. OPN transcript levels were normalized to GAPDH levels (dCT) which was used to calculate changes in OPN expression (2-ddCT). […] The primers used included Sppl (OPN) (Mm 00436767_m1); Bglap (osteocalcin) (Mm 01741771_g1); IBSP (Mm 00492555_m1); PTHrP (Mm 00433057_m1); RANKL (Mm 00441906_m1); GAPDH (Mm 99999915_g1).

OPN promoter = OPN promoter luciferase reporter assay in metastatic melanoma cell lines; assay type: cell-based, human
Source text: Empty pGL3 vector was used as control. […] Readings were normalized to total protein content. Each parameter was studied in triplicate and the experiment repeated at least 3 times. The data are represented as percent luciferase activity, which was derived as a percent of the relative light units in treated groups compared with the untreated groups.

Row | Compound | OPN in the secretome (OPN) | c-fos protein levels (c-jun) | phosphorylated c-jun (Ser 73) (c-jun) | phosphorylated c-jun (Thr 91, Thr 93) (c-jun) | expression of c-jun protein in nuclear fractions (c-jun; 0-72 hr) | phosphorylated c-jun (Ser 63) (c-jun; 0-72 hr) | c-jun protein levels (c-jun; cytosolic and nuclear fractions) | pancreatic cancer invasion and metastasis (pancreatic cancer) | c-fos mRNA levels, peak over 0 hr (c-jun and c-fos mRNA) | c-jun mRNA levels, increase (c-jun and c-fos mRNA; 6 hr) | c-jun mRNA levels, increase over 0 hr (c-jun and c-fos mRNA; 24 hr (peak)) | alkaline phosphatase (ALP) activity, osteoblast differentiation ([1]; DM supplemented with 100 nM recombinant ligand vs DM alone) | mineralized nodules / Alizarin Red staining ([1]; DM with recombinant ligand vs DM alone, 14 days) | expression of BSP ([1]; in presence of SHH, 14 days) | expression of osteocalcin ([1]; in presence of SHH, 14 days) | OPN promoter activity (OPN promoter; MCC012A cells, Hedgehog ligand treatment) | OPN promoter activity (OPN promoter; MCC012F cells, Hedgehog ligand treatment) | OPN promoter activity (OPN promoter; MDA-MB-435 cells, increasing concentrations of ligand vs untreated control)
1 | CC1=C2C[C@H]3[C@@H](CC=C4C[C@@H](O)CC[C@@]43C)[C@@H]2CC[C@]12O[C@@H]1C[C@H](C)CN[C@H]1[C@H]2C [cyclopamine] | decreased | increased substantially at 6 hr | gradual increase in levels at 24 hour, 48 hr, and 72 hr | peak levels at 6 hr | peaked at 48 hr | no substantial expression was detected over 72 hr | increased in cytosolic and nuclear fractions at 48 hr and 72 hr | suppressed pancreatic cancer invasion and metastasis | 27 fold | 3 fold | 13 fold |  |  |  |  |  |  | 
2 | SHH: recombinant Sonic Hedgehog ligand (R & D Systems) |  |  |  |  |  |  |  |  |  |  |  | promotes differentiation; also recorded: significantly greater | promote differentiation; also recorded: significantly greater number of mineralized nodules | significantly elevated | significantly elevated | significant increase | significant increase | significantly (p<0.0001) higher
